The results in this text go back to ChEMBL document CHEMBL1221220, “Transport and signaling via the amino acid binding site of the yeast Gap1 amino acid transceptor” (Nat Chem Biol, 2009).

Where a chain is given by its changes, count along the chain named. Activity calls are given as the source filed them. The calls are words filed in the database; no cut-off is given here.

Assay [1] deals with T1, General amino-acid permease GAP1 (Saccharomyces cerevisiae), P19145 [R399C].
T1 sequence (whole entry): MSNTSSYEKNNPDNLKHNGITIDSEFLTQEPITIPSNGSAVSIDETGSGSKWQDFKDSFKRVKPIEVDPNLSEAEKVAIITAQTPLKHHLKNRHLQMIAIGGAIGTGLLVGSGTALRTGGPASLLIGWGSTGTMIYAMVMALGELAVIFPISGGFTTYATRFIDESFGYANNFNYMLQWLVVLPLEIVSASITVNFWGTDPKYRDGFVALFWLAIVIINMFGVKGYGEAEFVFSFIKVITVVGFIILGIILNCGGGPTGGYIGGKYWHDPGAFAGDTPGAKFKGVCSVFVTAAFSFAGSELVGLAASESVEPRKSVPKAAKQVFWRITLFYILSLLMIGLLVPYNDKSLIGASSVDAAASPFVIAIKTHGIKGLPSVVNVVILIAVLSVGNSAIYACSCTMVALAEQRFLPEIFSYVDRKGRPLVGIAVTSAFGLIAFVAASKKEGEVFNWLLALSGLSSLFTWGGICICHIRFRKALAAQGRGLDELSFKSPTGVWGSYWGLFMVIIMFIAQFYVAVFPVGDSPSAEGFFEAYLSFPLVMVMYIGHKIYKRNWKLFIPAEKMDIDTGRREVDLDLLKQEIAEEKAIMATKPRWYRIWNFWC
The experiment in a line: Induction of yeast Gap1 R399C mutant-mediated trehalose activation at 2 mM in presence of 10 mM MTSEA treated before compound addition.

The test system of assay [2] is T2, General amino-acid permease GAP1 (Saccharomyces cerevisiae), P19145 [A393C].
T2 sequence (whole entry): T1 sequence (whole entry) with A393C, C399R
The experiment in a line: Activation of yeast Gap1 A393C mutant-mediated amino acid uptake at 10 mM.

In assay [3] the test system is General amino-acid permease GAP1 (Saccharomyces cerevisiae), P19145 [V389C]. The assay can be described thus: Induction of yeast Gap1 V389C mutant-mediated amino acid uptake at 2 mM in presence of 10 mM MTSEA treated before compound addition.
General amino-acid permease GAP1 (Saccharomyces cerevisiae), P19145 [V389C], sequence (P19145 whole entry V389C): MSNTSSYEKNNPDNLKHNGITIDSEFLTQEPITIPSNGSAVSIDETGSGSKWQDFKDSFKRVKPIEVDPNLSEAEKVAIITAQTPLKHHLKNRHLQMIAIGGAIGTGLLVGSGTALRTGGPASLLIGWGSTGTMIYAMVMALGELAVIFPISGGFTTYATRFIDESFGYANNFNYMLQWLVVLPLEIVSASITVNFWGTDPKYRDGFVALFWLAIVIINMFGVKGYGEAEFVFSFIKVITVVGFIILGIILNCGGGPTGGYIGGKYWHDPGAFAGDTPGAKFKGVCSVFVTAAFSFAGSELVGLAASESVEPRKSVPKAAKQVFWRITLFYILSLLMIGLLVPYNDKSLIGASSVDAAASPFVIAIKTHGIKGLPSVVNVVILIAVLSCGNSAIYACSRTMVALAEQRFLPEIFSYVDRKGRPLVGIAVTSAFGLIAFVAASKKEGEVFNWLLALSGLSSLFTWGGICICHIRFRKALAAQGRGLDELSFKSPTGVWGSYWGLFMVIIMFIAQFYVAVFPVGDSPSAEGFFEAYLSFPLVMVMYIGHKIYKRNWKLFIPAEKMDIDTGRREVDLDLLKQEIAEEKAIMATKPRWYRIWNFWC
Assay [4] has as its system T3, General amino-acid permease GAP1 (Saccharomyces cerevisiae), P19145 [I384C].
T3 sequence (whole entry): T1 sequence (whole entry) with I384C, C399R
The experiment in a line: Activation of yeast Gap1 I384C mutant-mediated amino acid uptake at 10 mM.

Assay [5] concerns T4, General amino-acid permease GAP1 (Saccharomyces cerevisiae), P19145 [M401C].
T4 sequence (whole entry): T1 sequence (whole entry) with C399R, M401C
The assay can be described thus: Activation of yeast Gap1 M401C mutant-mediated amino acid uptake at 10 mM.

With `NC(=O)NCCC[C@H](N)C(=O)O`, in assay [1], the inhibition entry was “Active”. For the same compound, the outcome in assay [2], in assay [4] and in assay [5] was inactive. Also, in assay [3], the inhibition result is “inactive”.
